Laboratory results as given in ChEMBL document CHEMBL3745657, “Core chemotype diversification in the HIV-1 entry inhibitor class using field-based bioisosteric replacement” (Bioorg Med Chem Lett, 2016).

Experiments:
Type in all cases: functional, organism-based
[1] = tested on: Human immunodeficiency virus 1; assay: Antiviral activity against recombinant HIV-1 NL4-3 expressing HIV-1 JR-CSF envelope infected in U87.CD4.CCR5 cells assessed as inhibition of Env mediated cell entry by HIV-1 single round infection assay; conditions: Human immunodeficiency virus 1, NL4-3, U87/CD4/CCR5
[2] = tested on: Human immunodeficiency virus 1; assay: Antiviral activity against recombinant HIV-1 NL4-3 expressing HIV-1 B41 envelope infected in U87.CD4.CCR5 cells assessed as inhibition of Env mediated cell entry by HIV-1 single round infection assay; conditions: Human immunodeficiency virus 1, NL4-3, U87/CD4/CCR5
[3] = tested on: Human immunodeficiency virus 1; assay: Antiviral activity against recombinant HIV-1 NL4-3 expressing HIV-1 HxBc2 envelope infected in U87.CD4.CXCR4 cells by HIV-1 single round infection assay; conditions: Human immunodeficiency virus 1, NL4-3, U87.CD4.CXCR4
[4] = tested on: Human immunodeficiency virus 1; assay: Antiviral activity against recombinant HIV-1 NL4-3 expressing AMLV envelope infected in U87.CD4.CCR5 cells assessed as inhibition of Env mediated cell entry by HIV-1 single round infection assay

Row | IC50 ([1]; read-out: IC50) [nM] | IC50 ([1]; read-out: pIC50 (converted)) [nM] | IC50 [2] [nM] | IC50 [3] [nM] | IC50 [4] | Structure (SMILES)
1 | 100000 | – | – | – | – | COc1cnc(Cl)c2[nH]cc(C(=O)C(=O)N3CC4CN(C(=O)c5ccccc5)CC4C3)c12 (centres undefined)
2 | 1 | 0.794 | – | – | – | COc1cnc(-n2cnc(C)n2)c2[nH]cc(C(=O)C(=O)N3CC4CN(C(=O)c5ccccc5)CC4C3)c12 (centres undefined)
3 | 2 | – | – | – | – | COc1cnc(-n2cnc(C)n2)c2[nH]cc(C(=O)C(=O)N3CC4CN(C(=O)C5=CCCCC5)CC4C3)c12 (centres undefined)
4 | 13000 | 12900 | 3900 | 36000 | Not Active | COc1cnc(-n2cnc(C)n2)c2[nH]cc(C(=O)C(=O)N3CCC4(CCN(C(=O)c5ccccc5)CC4)C3)c12
5 | 96 | – | 85 | 69 | Not Active | COc1cnc(-n2cnc(C)n2)c2[nH]cc(C(=O)C(=O)NC3C4CN(C(=O)c5ccccc5)CC43)c12 (centres undefined)
6 | 3 | – | 7 | 9 | Not Active | COc1cnc(-n2cnc(C)n2)c2[nH]cc(C(=O)C(=O)N3CC(CCC(=O)c4ccccc4)C3)c12
7 | 8 | – | 6 | 80 | Not Active | COc1cnc(-n2cnc(C)n2)c2[nH]cc(C(=O)C(=O)N3CC4C=NN(c5ccccc5)C4C3)c12 (centres undefined)
8 | 224 | – | 350 | 380 | Not Active | COc1cnc(-n2cnc(C)n2)c2[nH]cc(C(=O)C(=O)N3CC=C(CNC(=O)c4ccccc4)CC3)c12
9 | 2500 | – | 3800 | 3800 | Not Active | COc1cnc(-n2cnc(C)n2)c2[nH]cc(C(=O)NCC3CN(C(=O)c4ccccc4)C3)c12
